# Earlier results as cited in patent US20030031589A1, “Control of gaseous sterilisation” (priority 2002, published 2003).
# Like-named read-outs stand apart in the source and are kept apart here.
# Tests used:
# bacillus subtilis = conditions: aqueous solutions; 'D' values depend on concentration and temperature
# [1] = high relative humidity
smiles,measurement,setting,value
OO [hydrogen peroxide],sporicidal activity,bacillus subtilis,sporicidal
"CC(=O)OO [Peracetic vapour, peracetic acid]",effectiveness of vapour,spores; RH of 20%,ineffective
same,effectiveness of vapour,spores; RH of 80%,effective
"C=O [formalin vapour, formaldehyde]",effectiveness of vapour vs relative humidity,[1],more effective at high relative humidity
